Test results: patent US7320990B2, “Crystalline form of a biphenyl compound” (Theravance, Inc., priority 2004, dated 2008)

Experiments:
[1] = Thermal analysis (DSC and TGA); format: physicochemical
Method: Differential scanning calorimetry (DSC) was performed using a TA Instruments Model Q-10 module with a Thermal Analyst controller. Data were collected and analyzed using TA Instruments Thermal Solutions software. A sample of about 1 mg was accurately weighed into an aluminum pan with lid. The sample was evaluated using a linear heating ramp of 5° C./min from ambient temperature to approximately 300° C. The DSC cell was purged with dry nitrogen during use.
Thermogravimetric analysis (TGA) was performed using a TA Instruments Model Q-50 module equipped with Hi-Resolution capability. Data were collected and analyzed using TA Instruments Thermal Solutions software. A sample weighing about 10 mg was placed onto a platinum pan and scanned with a high resolution-heating rate from ambient temperature to 300° C. The balance and furnace chambers were purged with nitrogen flows during use.

[2] = Dynamic moisture sorption assessment (DMS); format: physicochemical; settings: for deliquescence: exposed to atmosphere moisture
Method: Approximately 10 mg of sample was used in the microbalance and the sample was run as received. The humidity was set at ambient condition on the day the analysis began. A typical DMSG analysis consisted of three scans: ambient to 2% relative humidity (RH), 2% RH to 90% RH, 90% RH to 5% RH. The scan rate was 5% RH/step. The mass was measured every two minutes using an equilibrium window of 5 points within 0.01% of the initial sample weight. The RH was changed to the next value (+/−5% RH) when the mass of the sample was stable to within 0.01% for 5 consecutive points.

[3] = system: human β1, β2 or β3 adrenergic receptors; experiment: Whole-cell cAMP Flashplate assay in CHO cell lines heterologously expressing human β adrenergic receptors; format: cell-based; settings: CHO-K1 cells; receptor subtype not named in the result sentence; read-out: EC50 values (β receptor agonist potency, cAMP)
Method: Test compounds (10 mM in DMSO) were diluted into PBS containing 0.1% BSA in Beckman Biomek-2000 and tested at 11 different concentrations ranging from 100 μM to 1 pM.

[4] = system: His-induced bronchoconstriction; experiment: Bronchoprotection in guinea pig model of histamine-induced bronchoconstriction; format: in vivo; settings: inhalation, 1.5 hours post-dose
Method: (§1) Groups of 6 male guinea pigs (Duncan-Hartley (HsdPoc:DH) Harlan, Madison, Wis.) weighing between 250 and 350 g were individually identified by cage cards. Throughout the study, animals were allowed access to food and water ad libitum.
(§2) Forty-five minutes prior to the start of the pulmonary evaluation, each guinea pig was anesthetized with an intramuscular injection of ketamine (43.75 mg/kg), xylazine (3.50 mg/kg) and acepromazine (1.05 mg/kg). After the surgical site was shaved and cleaned with 70% alcohol, a 2-3 cm midline incision of the ventral aspect of the neck was made. […] The depth of anesthesia was monitored and adjusted if the animal responds to pinching of its paw or if the respiration rate was greater than 100 breaths/minute. […]
(§3) Once it was determined that baseline values were within the range of 0.3-0.9 mL/cm H2O for compliance and within the range of 0.1-0.199 cm H2O/mL per second for resistance, the pulmonary evaluation was initiated. […]
(§4) Starting this program initiated the experimental protocol and data collection. The changes in […] over time that occur within the plethysmograph with each breath were measured via a Buxco pressure transducer. By integrating this signal over time, a measurement of flow was calculated for each breath. […]

[5] = system: ACh-induced bronchoconstriction; experiment: Bronchoprotection in guinea pig model of acetylcholine-induced bronchoconstriction; format: in vivo; settings: inhalation, 1.5 hours post-dose
Method: as §1, §2, §3, §4

[6] = listed as crystalline naphthalene-1,5-disulfonic acid salt of the compound of formula I
[7] = listed as naphthalene-1,5-disulfonic acid salt of the present invention

Compound	weight loss (TGA) ([1]; from room temperature to 150° C.)	temperature below which no thermal decomposition occurs (DSC) ([1]; heating ramp of 5° C./min)	moisture sorption/desorption profile [2]	deliquescence [2, 6]	deliquescence [2, 7]	weight gain ([2]; humidity range from 2% RH up to 90% RH)	weight gain ([2]; humidity range of 40% RH to 75% RH)	hygroscopicity (weight gain when exposed to atmospheric moisture) [2, 6]	hygroscopicity (weight gain when exposed to atmospheric moisture) [2, 7]	EC50 [3]	ID50 for His-induced bronchoconstriction [4]	ID50 for ACh-induced bronchoconstriction [5]
Biphenyl-2-ylcarbamic Acid 1-{9-[(R)-2-Hydroxy-2-(8-Hydroxy-2-oxo-1,2-dihydroquinolin-5-yl)ethylamino]nonyl}piperidin-4-yl Ester Naphthalene-1,5-disulfonic Acid Salt [Example 3]	about 1.8%	≥ 200 °C	reversible	not to be deliquescent	not deliquescent	3.7%	less than 1.5%	less than 5%	< 5%			
O=C(Nc1ccccc1-c1ccccc1)OC1CCN(CCCCCCCCCNC[C@H](O)c2ccc(O)c3[nH]c(=O)ccc23)CC1 [compound of formula I, biphenyl-2-ylcarbamic acid 1-{9-[(R)-2-hydroxy-2-(8-hydroxy-2-oxo-1,2-dihydro-quinolin-5-yl)ethylamino]nonyl}piperidin-4-yl ester]										< 10 nM	less than 100 μg/mL	less than 100 μg/mL
